Source: the supplement of paper PMC11451515

Columns and labels:
Conditions in all cases: 48 h
NOMO1 [1] = assay: cell viability relative to DMSO control; higher = less cytotoxic
Method in brief: (§1)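 Before seeding, each leukemia line was adapted for at least four passages in each medium. NOMO1 or SEM cells (500 cells/well) and P12-Ichikawa cells (1000 cells/well) went into 1536-well plates at 5 μl, then received library compounds in DMSO by pin dosing across 11 threefold concentrations, 47 μM to 0.79 nM. Readout was CellTiter-Glo One luminescence after 48 h at 37°C, and viability is given as a per-plate percentage of DMSO wells, with cell-free wells as background.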

P12-Ichikawa [2] = assay: as above
Method in brief: as §1

SEM cells [3] = assay: as above
Method in brief: as §1

NOMO1 [4] = assay: AUC of viability dose-response curve (% viability x log10 dose units); higher = less sensitive
Method in brief: (§2)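 Leukemia cells adapted to each medium were seeded in 1536-well plates (500 or 1000 cells/well). They were dosed with library compounds in DMSO at 11 threefold doses, 47 μM to 0.79 nM, for 48 h at 37°C. CellTiter-Glo One luminescence was normalised per plate to DMSO and cell-free wells. Area under the curve was integrated by trapezoidal rule over log10 doses on a four-parameter log-logistic fit; curves exceeding full viability were scaled and curves failing quality control removed.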

P12-Ichikawa [5] = assay: as above
Method in brief: as §2

SEM cells [6] = assay: as above
Method in brief: as §2

Oc1cc(O)cc(/C=C/c2ccc(O)c(O)c2)c1
cell viability [%]
Conditions | NOMO1 [1] | P12-Ichikawa [2] | SEM cells [3]
HPLM + 10% dialyzed FBS, 0.000781 µM | 97.9 | 103 | 86.5
HPLM + 10% dialyzed FBS, 0.00234 µM | 101 | 103 | 85.8
HPLM + 10% dialyzed FBS, 0.00702 µM | 99.3 | 100 | 89.6
HPLM + 10% dialyzed FBS, 0.0211 µM | 99.4 | 106 | 80.1
HPLM + 10% dialyzed FBS, 0.0632 µM | 110 | 103 | 99.9
HPLM + 10% dialyzed FBS, 0.19 µM | 104 | 109 | 92.7
HPLM + 10% dialyzed FBS, 0.569 µM | 97.4 | 106 | 93.3
HPLM + 10% dialyzed FBS, 1.71 µM | 101 | 111 | 106
HPLM + 10% dialyzed FBS, 5.12 µM | 100 | 98 | 78.1
HPLM + 10% dialyzed FBS, 15.4 µM | 56 | 85.2 | 77.9
HPLM + 10% dialyzed FBS, 46.1 µM | 45.4 | 28.3 | 44.6
RPMI 5 mM glucose + 10% FBS, 0.000781 µM | 89.7 | 97.5 | 101
RPMI 5 mM glucose + 10% FBS, 0.00234 µM | 90.5 | 92.7 | 102
RPMI 5 mM glucose + 10% FBS, 0.00702 µM | 94 | 101 | 95
RPMI 5 mM glucose + 10% FBS, 0.0211 µM | 85.6 | 104 | 107
RPMI 5 mM glucose + 10% FBS, 0.0632 µM | 91.9 | 102 | 101
RPMI 5 mM glucose + 10% FBS, 0.19 µM | 85.7 | 97.8 | 101
RPMI 5 mM glucose + 10% FBS, 0.569 µM | 97.1 | 105 | 115
RPMI 5 mM glucose + 10% FBS, 1.71 µM | 88.4 | 97 | 92.7
RPMI 5 mM glucose + 10% FBS, 5.12 µM | 86.9 | 85 | 85.3
RPMI 5 mM glucose + 10% FBS, 15.4 µM | 72.3 | 91.1 | 67.5
RPMI 5 mM glucose + 10% FBS, 46.1 µM | 70.8 | 45.6 | 14.2
RPMI 5 mM glucose + 10% dialyzed FBS, 0.000781 µM | 81.6 | 87.6 | 87.9
RPMI 5 mM glucose + 10% dialyzed FBS, 0.00234 µM | 99.6 | 88.3 | 92.7
RPMI 5 mM glucose + 10% dialyzed FBS, 0.00702 µM | 92.3 | 101 | 78.6
RPMI 5 mM glucose + 10% dialyzed FBS, 0.0211 µM | 88.8 | 104 | 82.6
RPMI 5 mM glucose + 10% dialyzed FBS, 0.0632 µM | 103 | 102 | 87.5
RPMI 5 mM glucose + 10% dialyzed FBS, 0.19 µM | 98.4 | 104 | 89.8
RPMI 5 mM glucose + 10% dialyzed FBS, 0.569 µM | 94.9 | 93 | 97.6
RPMI 5 mM glucose + 10% dialyzed FBS, 1.71 µM | 93.5 | 101 | 84.2
RPMI 5 mM glucose + 10% dialyzed FBS, 5.12 µM | 79.3 | 93.6 | 82.4
RPMI 5 mM glucose + 10% dialyzed FBS, 15.4 µM | 84.8 | 84.4 | 63.4
RPMI 5 mM glucose + 10% dialyzed FBS, 46.1 µM | 72.8 | 40.7 | 27.3

AUC of viability dose-response curve
Conditions | NOMO1 [4] | P12-Ichikawa [5] | SEM cells [6]
HPLM + 10% dialyzed FBS | 442 | 449 | 413
RPMI 5 mM glucose + 10% FBS | 416 | 452 | 430
RPMI 5 mM glucose + 10% dialyzed FBS | 431 | 444 | 390

Cc1c(C(=O)Nc2cccc(C(F)(F)F)c2)cc(-c2ccccc2)n1CCCN1CCOCC1
cell viability [%]
Conditions | NOMO1 [1] | P12-Ichikawa [2] | SEM cells [3]
HPLM + 10% dialyzed FBS, 0.000781 µM | 104 | 116 | 99.2
HPLM + 10% dialyzed FBS, 0.00234 µM | 99.5 | 112 | 112
HPLM + 10% dialyzed FBS, 0.00702 µM | 112 | 113 | 106
HPLM + 10% dialyzed FBS, 0.0211 µM | 109 | 112 | 105
HPLM + 10% dialyzed FBS, 0.0632 µM | 97.2 | 106 | 111
HPLM + 10% dialyzed FBS, 0.19 µM | 113 | 106 | 96.3
HPLM + 10% dialyzed FBS, 0.569 µM | 129 | 104 | 111
HPLM + 10% dialyzed FBS, 1.71 µM | 116 | 99.2 | 99.5
HPLM + 10% dialyzed FBS, 5.12 µM | 105 | 104 | 90.3
HPLM + 10% dialyzed FBS, 15.4 µM | 95.9 | 91.7 | 93.6
HPLM + 10% dialyzed FBS, 46.1 µM | 82.5 | 79.7 | 62.8
RPMI 5 mM glucose + 10% FBS, 0.000781 µM | 107 | 111 | 89.6
RPMI 5 mM glucose + 10% FBS, 0.00234 µM | 105 | 109 | 106
RPMI 5 mM glucose + 10% FBS, 0.00702 µM | 111 | 115 | 119
RPMI 5 mM glucose + 10% FBS, 0.0211 µM | 100 | 105 | 116
RPMI 5 mM glucose + 10% FBS, 0.0632 µM | 102 | 113 | 110
RPMI 5 mM glucose + 10% FBS, 0.19 µM | 101 | 119 | 101
RPMI 5 mM glucose + 10% FBS, 0.569 µM | 96.5 | 108 | 122
RPMI 5 mM glucose + 10% FBS, 1.71 µM | 92.4 | 108 | 101
RPMI 5 mM glucose + 10% FBS, 5.12 µM | 91.7 | 97.1 | 115
RPMI 5 mM glucose + 10% FBS, 15.4 µM | 96.4 | 88 | 93.6
RPMI 5 mM glucose + 10% FBS, 46.1 µM | 95.2 | 70.3 | 50.9
RPMI 5 mM glucose + 10% dialyzed FBS, 0.000781 µM | 115 | 105 | 104
RPMI 5 mM glucose + 10% dialyzed FBS, 0.00234 µM | 107 | 117 | 111
RPMI 5 mM glucose + 10% dialyzed FBS, 0.00702 µM | 111 | 114 | 121
RPMI 5 mM glucose + 10% dialyzed FBS, 0.0211 µM | 109 | 114 | 113
RPMI 5 mM glucose + 10% dialyzed FBS, 0.0632 µM | 108 | 114 | 121
RPMI 5 mM glucose + 10% dialyzed FBS, 0.19 µM | 117 | 107 | 115
RPMI 5 mM glucose + 10% dialyzed FBS, 0.569 µM | 111 | 106 | 109
RPMI 5 mM glucose + 10% dialyzed FBS, 1.71 µM | 111 | 103 | 109
RPMI 5 mM glucose + 10% dialyzed FBS, 5.12 µM | 109 | 103 | 95
RPMI 5 mM glucose + 10% dialyzed FBS, 15.4 µM | 91.4 | 94 | 92.6
RPMI 5 mM glucose + 10% dialyzed FBS, 46.1 µM | 73.3 | 74.1 | 45.8

AUC of viability dose-response curve
Conditions | NOMO1 [4] | P12-Ichikawa [5] | SEM cells [6]
HPLM + 10% dialyzed FBS | 458 | 438 | 454
RPMI 5 mM glucose + 10% FBS | 446 | 449 | 458
RPMI 5 mM glucose + 10% dialyzed FBS | 460 | 454 | 446
